Results as given in patent publication US20250145607A1, “Modulators of CAMKK2 as Ligand Directed Degraders” (Celgene Corporation, priority 2021, published 2025).

biological target: T1, Enhanced ProLabel (ePL)-Tagged CAMKK2 (Homo sapiens, UniProt Q96RR4); test: Degradation of stably expressed ePL-tagged CAMKK2 in 293T cells (InCELL Hunter luminescence, 24 h); assay type: cell-based; conditions: minimum % protein remaining; ePL-CAMKK2 293T cells, 24 h incubation
T1 construct: expressed in transfected cells
Experimental: Cells were dispensed into 384 well plates pre-spotted with serial diluted test compounds. After 24 h incubation, degradation was terminated by the addition of DiscoverX InCELL Hunter Detection reagent.
Assay plates were incubated at 37° C. with 5% CO2 for 24 hours. Plates were kept at room temperature for 30 min, after which 25 μL of the InCELL Hunter Detection Reagent Working Solution was added (catalog number 96-0002, DiscoverX, Fremont, CA). After plates were incubated at room temperature for 30 min, protected from light, luminescence was read on a PHERAstar reader (BMG LABTECH, Cary, N.C.). Data was normalized and fit using Activity Base (IDBS, Alameda, Calif.) as described below.
A Four Parameter Logistic Model (Sigmoidal Dose-Response Model, equation 1) was used to determine the compound's EC50 and degradation Ymin.
where C is CAMKK2 degradation potency EC50, D is the […], A is the lower limit reported as Ymin. Ymin and EC50 were used to characterize compound-mediated CAMKK2 degradation efficiency.

T1 sequence (Q96RR4 whole entry): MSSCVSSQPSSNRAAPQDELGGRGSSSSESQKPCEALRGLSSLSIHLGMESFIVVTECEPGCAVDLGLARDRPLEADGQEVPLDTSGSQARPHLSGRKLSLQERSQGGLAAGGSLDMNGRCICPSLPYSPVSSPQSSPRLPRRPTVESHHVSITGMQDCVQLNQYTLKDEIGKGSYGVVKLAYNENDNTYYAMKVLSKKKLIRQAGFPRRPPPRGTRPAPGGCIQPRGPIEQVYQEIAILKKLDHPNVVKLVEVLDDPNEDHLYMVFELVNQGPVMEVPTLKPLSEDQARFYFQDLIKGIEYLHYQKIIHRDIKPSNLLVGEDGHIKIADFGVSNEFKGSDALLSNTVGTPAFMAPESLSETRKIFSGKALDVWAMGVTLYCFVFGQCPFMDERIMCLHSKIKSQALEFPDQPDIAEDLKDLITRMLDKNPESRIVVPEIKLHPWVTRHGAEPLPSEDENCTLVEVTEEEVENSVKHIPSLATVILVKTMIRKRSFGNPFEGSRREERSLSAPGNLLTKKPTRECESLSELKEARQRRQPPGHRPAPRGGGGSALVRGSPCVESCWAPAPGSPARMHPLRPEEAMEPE

SMILES | (ePL) HEK293 24 h CAMKK2 Ymin(%)
Cc1ncsc1-c1ccc(CNC(=O)[C@@H]2C[C@@H](O)CN2C(=O)[C@@H](NC(=O)CCCCCCOc2ccc3c(-c4ccc(C(=O)O)c(C5CCCC5)c4)ncnc3c2)C(C)(C)C)cc1 (racemic) [Compound 6, 2-cyclopentyl-4-[7-[7-oxo-7-[[rac-(1S)-2,2-dimethyl-1-[rac-(2S,4R)-4-hydroxy-2-[[4-(4-methylthiazol-5-yl)phenyl]methylcarbamoyl]pyrrolidine-1-carbonyl]propyl]amino]heptoxy]quinazolin-4-yl]benzoic acid] | 42%
Cc1ncsc1-c1ccc(CNC(=O)[C@@H]2C[C@@H](O)CN2C(=O)[C@@H](NC(=O)CCCCCCCCOc2ccc3c(-c4ccc(C(=O)O)c(C5CCCC5)c4)ncnc3c2)C(C)(C)C)cc1 [Compound 4, 2-cyclopentyl-4-[7-[9-[[(1S)-1-[(2S,4R)-4-hydroxy-2-[[4-(4-methylthiazol-5-yl)phenyl]methylcarbamoyl]pyrrolidine-1-carbonyl]-2,2-dimethyl-propyl]amino]-9-oxo-nonoxy]quinazolin-4-yl]benzoic acid] | 19%
Cc1ncsc1-c1ccc(CNC(=O)[C@@H]2C[C@@H](O)CN2C(=O)[C@@H](NC(=O)CCCCCCCOc2ccc3c(-c4ccc(C(=O)O)c(C5CCCC5)c4)ncnc3c2)C(C)(C)C)cc1 [Compound 5] | 32%

The remaining lines, values ahead:

(ePL) HEK293 24 h CAMKK2 Ymin(%) | SMILES
37% | Cc1ncsc1-c1ccc(CNC(=O)[C@@H]2C[C@@H](O)CN2C(=O)[C@@H](NC(=O)CCCCCCCCCCOc2ccc3c(-c4ccc(C(=O)O)c(C5CCCC5)c4)ncnc3c2)C(C)(C)C)cc1 (racemic) [Compound 2, 2-cyclopentyl-4-[7-[11-oxo-11-[[rac-(1S)-2,2-dimethyl-1-[rac-(2S,4R)-4-hydroxy-2-[[4-(4-methylthiazol-5-yl)phenyl]methylcarbamoyl]pyrrolidine-1-carbonyl]propyl]amino]undecoxy]quinazolin-4-yl]benzoic acid]
43% | Cc1ncsc1-c1ccc(CNC(=O)[C@@H]2C[C@@H](O)CN2C(=O)[C@@H](NC(=O)CCCCCCCCCCCOc2ccc3c(-c4ccc(C(=O)O)c(C5CCCC5)c4)ncnc3c2)C(C)(C)C)cc1 [Compound 1, 2-cyclopentyl-4-[7-[12-[[(1S)-1-[(2S,4R)-4-hydroxy-2-[[4-(4-methylthiazol-5-yl)phenyl]methylcarbamoyl]pyrrolidine-1-carbonyl]-2,2-dimethyl-propyl]amino]-12-oxo-dodecoxy]quinazolin-4-yl]benzoic acid]
